In US20240156767A1, “SCREENING METHOD FOR GLP-1 SECRETION REGULATION AGENT, GLP-1 SECRETION REGULATION AGENT, COMPOSITION FOR PREVENTING OR AMELIORATING DIABETES, OBESITY, POSTPRANDIAL HYPERGLYCEMIA, NEURODEGENERATIVE DISEASE, HYPOGLYCEMIA, ADIPOSITY, OR NESIDIOBLASTOSIS, METHOD FOR PROMOTING SECRETION OF GLP-1 IN …” (The Nisshin OilliO Group, Ltd., priority 2021, published 2024):

Experiments:
STC-1 cells = assay: Cell culture test: GLP-1 secretion from enteroendocrine STC-1 cells (ELISA); format: cell-based; conditions: for GLP-1 CONCENTRATION: 30 minutes after sample, mean±standard error; for Effect on GLP-1 secretion from STC-1 cells (in words): 0.01-1.0 mM
Procedure: By carrying out a cell culture test (in vitro test) by the following method, and administering various medium chain fatty acids (capric acid or lauric acid, both are a free form) to enteroendocrine cells (STC-1 cells), an effect of each medium chain fatty acid on GLP-1 secretion was examined. The above medium chain fatty acids correspond to GPR84 agonists. To the same dimethyl sulfoxide (1 ml) as in the (1-1) above, 172 mg of capric acid (trade name “Decanoic Acid <Capric Acid>”, manufactured by New Check Prep) was added to obtain 1000 mM of capric acid samples. A 1000 mM capric acid sample (0.1 ml) was added to dimethylsulfoxide (0.9 ml) to obtain a 100 mM capric acid sample. A 100 mM capric acid sample (0.1 ml) was added to dimethylsulfoxide (0.9 ml) to obtain a 10 mM capric acid sample. Note here that when capric acid was added to dimethylsulfoxide, a mixture was mixed while heating to prepare a sample having a uniform capric acid concentration. To the same dimethylsulfoxide (1 ml) as in the (1-1) above, 200 mg of lauric acid (trade name “Dodecanoic Acid <Lauric Acid>”, manufactured by New Check Prep) was added to obtain 1000 mM of lauric acid sample. A 1000 mM lauric acid sample (0.1 ml) was added to dimethylsulfoxide (0.9 ml) to obtain a 100 mM lauric acid sample. A 100 mM lauric acid sample (0.1 ml) was added to dimethylsulfoxide (0.9 ml) to obtain a 10 mM lauric acid sample. Note here that when lauric acid was added to dimethyl sulfoxide, the mixture was mixed while heating to prepare a sample having a uniform lauric acid concentration. STC-1 cells (trade name “STC-1”, manufactured by American Type Culture Collection) were cultured in a medium at 37° C. in 5% CO2 for 48 hours to obtain STC-1 cells for testing. Note here that as the medium, a DMEM medium (trade name “Dulbecco's Modified Eagle Medium (High Glucose)”, manufactured by Sigma-Aldrich) including 15% horse serum (trade name “Horse Serum, New Zealand origin”, manufactured by Gibco) and 5% fetal bovine serum (trade name “Fetal Bovine Serum (FBS) Standard, Origin South America”, manufactured by Cosmo Bio) was used. The culture medium for STC-1 cells was replaced with a serum-free medium (300 μl/well), starvation was carried out for 30 minutes, then the serum-free medium was replaced with a new serum-free medium (300 μl/well), and 0.3 μl each of any one of samples was added to each well. Thirty minutes after administration of the sample, the medium was collected and mixed in a 1.5 ml tube in which 3 μL of DPP4 inhibitor (trade name “DPP IV Inhibitor”, manufactured by Sigma-Aldrich) had been placed in advance. Then, each tube was centrifuged at 4° C. at 1,000×g for 5 minutes, and the supernatant was collected in a new 1.5 ml tube. GLP-1 concentration (nM) in the collected supernatant was measured. Note here that the GLP-1 concentration was measured by ELISA method using a commercially available kit (trade name “Glucagon Like Peptide-1 (Active) ELISA”, manufactured by Sigma-Aldrich). In the data of FIG. 1 and Table 1, the measured values of GLP-1 concentration are expressed as “mean±standard error”. Dunnet's test was used to test significant differences between trials, and significant differences were determined to exist when the risk rate was less than 5% (*p<0.05). Also, the sample concentrations in FIG. 1 and Table 1 indicate the concentrations in the medium in the cell culture test.

wild-type mice = assay: Administration test: plasma GLP-1 concentration in wild-type mice (ELISA); format: in vivo; conditions: WT mice, 1000 mg/kg oral; for Relative GLP-1 (plasma GLP-1 concentration relative to before administration = 1): 120 minutes after administration, mean±standard error
Procedure: An administration test was carried out by the following method to examine an effect of administration of various medium chain fatty acids (capric acid or lauric acid, both are a free form) to mice on plasma GLP-1 secretion. The above medium chain fatty acids correspond to GPR84 agonists. A control sample (carboxymethylcellulose), a capric acid sample, and a lauric acid sample were prepared in the same manner as in the <Test 2> above. Based on the following method, any one of a control sample, a capric acid sample, and a lauric acid sample was administered to mice in each group. In this test, two types of mice, that is, wild-type mice and GPR84 knockout mice, were prepared. As wild-type mice, 18 C57BL/6 male mice at 7- to 9-weeks old (purchased from Japan SLC, Inc.) were used. As the GPR84 knockout mice, 12 mice were prepared using C57BL/6 according to the method by Wang et al. (Pharmacological Research Volume 164, February 2021, 105406). Furthermore, the age in weeks of the GPR84 knockout mice was the same as that of the wild-type mice. Each mouse was acclimatized for one week, and then divided into six groups (a control sample-administered group, a capric acid sample-administered group, and a lauric acid sample administration group for each of the wild-type mice and the GPR84 knockout mice) so that average value of the body weight is uniform in each group. Note here that the mice were reared in plastic cages under an environment of temperature of 24±1° C., humidity of 50±10%, and a 12-hour light-dark cycle (lighting from 8:00 to 20:00). Water and solid feed (trade name “CLEA Rodent Diet CE-2 for mice, rats and hamsters”, manufactured by CLEA Japan Co., Ltd.) were fed ad libitum. However, the day before the glucose tolerance test, fasting was started from 17:00, and on the day of the test, the administration was started from 10:00. Each sample (any one of a control sample, a capric acid sample, and a lauric acid sample) was administered to each group of mice after blood was collected from the tail vein. […] Plasma was prepared by a conventional method from the blood obtained before and after sample administration, and the plasma GLP-1 concentration (pM) was measured. The plasma GLP-1 concentration was measured by ELISA using a commercially available kit (trade name “Glucagon Like Peptide-1 (Active) ELIS”, manufactured by Sigma-Aldrich). The data in FIG. 3 and Table 3 are expressed as relative values (Relative GLP-1) when the average value of plasma GLP-1 concentration before administration of each sample is set to “1”, and expressed as “mean±standard error of the relative values”. Dunnet's test was used to test significant differences between trials, and significant differences were determined to exist when the risk rate was less than 5% (*p<0.05). […]

GPR84 knockout mice [1] = assay: Administration test: plasma GLP-1 concentration in GPR84 knockout mice (ELISA); format: in vivo; conditions: GPR84KO mice; 1000 mg/kg oral; 120 minutes after administration; mean±standard error
Procedure: An administration test was carried out by the following method to examine an effect of administration of various medium chain fatty acids (capric acid or lauric acid, both are a free form) to mice on plasma GLP-1 secretion. The above medium chain fatty acids correspond to GPR84 agonists. A control sample (carboxymethylcellulose), a capric acid sample, and a lauric acid sample were prepared in the same manner as in the <Test 2> above. Based on the following method, any one of a control sample, a capric acid sample, and a lauric acid sample was administered to mice in each group. In this test, two types of mice, that is, wild-type mice and GPR84 knockout mice, were prepared. As wild-type mice, 18 C57BL/6 male mice at 7- to 9-weeks old (purchased from Japan SLC, Inc.) were used. […] Plasma was prepared by a conventional method from the blood obtained before and after sample administration, and the plasma GLP-1 concentration (pM) was measured. The plasma GLP-1 concentration was measured by ELISA using a commercially available kit (trade name “Glucagon Like Peptide-1 (Active) ELIS”, manufactured by Sigma-Aldrich). The data in FIG. 3 and Table 3 are expressed as relative values (Relative GLP-1) when the average value of plasma GLP-1 concentration before administration of each sample is set to “1”, and expressed as “mean±standard error of the relative values”. […]

GPR84 knockout mice [2] = assay: Same test as Test 2 (glucose tolerance, plasma insulin) using GPR84 knockout mice, data not shown; format: in vivo; conditions: effect lower than with wild-type mice
From the text: However, the increasing effect was lower than with wild-type mice. […] It was inferred that the total insulin secretion was reduced compared with that of wild-type mice.

Row | SMILES | GLP-1 CONCENTRATION (STC-1 cells; 0.01 mM in medium) | GLP-1 CONCENTRATION (STC-1 cells; 0.1 mM in medium) | GLP-1 CONCENTRATION (STC-1 cells; 1.0 mM in medium) | Effect on GLP-1 secretion from STC-1 cells (in words) (STC-1 cells) | Effect on plasma GLP-1 concentration (in words) (wild-type mice) | Relative GLP-1 (plasma GLP-1 concentration relative to before administration = 1) (wild-type mice) | Relative GLP-1 (plasma GLP-1 concentration relative to before administration = 1) (GPR84 knockout mice [1]) | Effect on plasma insulin concentration (in words) (GPR84 knockout mice [2])
1 | CCCCCCCCCC(=O)O [Capric acid, capric acid (n-decanoic acid)] | 1.235 ± 0.120 nM | 1.517 ± 0.005 nM | 4.629 ± 0.087 * nM | promoted GLP-1 secretion | significantly increased the plasma GLP-1 concentration | 1.65 ± 0.29 * | 0.63 ± 0.2 | increased the plasma insulin concentration
2 | CCCCCCCCCCCC(=O)O [Lauric acid, lauric acid] | 1.827 ± 0.060 * nM | 3.915 ± 0.197 * nM | 4.268 ± 0.084 * nM | promoted GLP-1 secretion | significantly increased the plasma GLP-1 concentration | 3.02 ± 0.67 * | 0.68 ± 0.19 | increased the plasma insulin concentration
